In ChEMBL document CHEMBL1201862, “PubChem BioAssay data set” (2004):
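Protocol summary: plate cells (96-well), add compound at 5 concentrations, incubate 48 h, interpolate endpoints linearly. GI50: concentration for 50% inhibition of growth.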 The source made the active and inactive calls. No stated cut-off is given here; in the data, active = GI50 up to about 1.1 µM and inactive = higher.

Experiments:
Test in all cases: NCI-60 cell line screen, 48 h
786-0 = test system: 786-0
COLO 205 = test system: COLO 205
EKVX = test system: EKVX
Hs-578T = test system: Hs-578T
KM12 = test system: KM12
LOX IMVI = test system: LOX IMVI
NCI-H460 = test system: NCI-H460
OVCAR-4 = test system: OVCAR-4
OVCAR-8 = test system: OVCAR-8
PC-3 = test system: PC-3
RPMI-8226 = test system: RPMI-8226
SF-268 = test system: SF-268
SK-MEL-5 = test system: SK-MEL-5
SK-OV-3 = test system: SK-OV-3
SNB-19 = test system: SNB-19
SNB-75 = test system: SNB-75
U-251 = test system: U-251
NCI-H23 = test system: NCI-H23
SK-MEL-28 = test system: SK-MEL-28
NCI-H522 = test system: NCI-H522

Measured: GI50

COc1cc(-c2c[nH]c3ccccc23)nc(-c2c[nH]c3ccccc23)n1
inactive: 786-0 1.86 µM | COLO 205 8.32 µM | EKVX 5.56 µM | Hs-578T 16.3 µM | KM12 4.18 µM | LOX IMVI 4.84 µM | NCI-H460 3.08 µM | OVCAR-4 8.81 µM | OVCAR-8 4.97 µM | PC-3 2.84 µM | RPMI-8226 2.8 µM | SF-268 14.7 µM | SK-MEL-5 5 µM | SK-OV-3 10.9 µM | SNB-19 5.26 µM | SNB-75 6.1 µM | U-251 4.19 µM

CC(=O)OC[C@@H](OC(C)=O)[C@@H](OC(C)=O)[C@H]1OC[C@@H]2C[C@H]([C@H]1OC(C)=O)N(Cc1ccccc1)O2
inactive: 786-0 > 100 µM | COLO 205 > 100 µM | EKVX > 100 µM | Hs-578T > 100 µM | KM12 > 100 µM | LOX IMVI > 100 µM | NCI-H23 > 100 µM | NCI-H460 > 100 µM | OVCAR-4 > 100 µM | PC-3 > 100 µM | RPMI-8226 > 100 µM | SF-268 > 100 µM | SK-MEL-28 > 100 µM | SK-MEL-5 > 100 µM | SK-OV-3 93.8 µM | SNB-19 > 100 µM | SNB-75 > 100 µM | U-251 > 100 µM

Cc1cc(C)c(S(=O)(=O)N2CCN(S(=O)(=O)c3c(C)cc(C)cc3C)OCCCCCO2)c(C)c1
inactive: 786-0 > 100 µM | COLO 205 > 100 µM | EKVX > 100 µM | Hs-578T > 100 µM | KM12 > 100 µM | LOX IMVI > 100 µM | NCI-H23 > 100 µM | NCI-H460 > 100 µM | NCI-H522 > 100 µM | OVCAR-4 > 100 µM | OVCAR-8 > 100 µM | PC-3 6.22 µM | SF-268 > 100 µM | SK-MEL-28 > 100 µM | SK-MEL-5 > 100 µM | SK-OV-3 > 100 µM | SNB-19 > 100 µM | U-251 > 100 µM

COC(=O)c1c(O)c(C#N)c2[nH]c3ccccc3n2c1=O
inactive: 786-0 > 100 µM | COLO 205 > 100 µM | EKVX > 100 µM | Hs-578T > 100 µM | KM12 > 100 µM | NCI-H23 > 100 µM | NCI-H460 > 100 µM | NCI-H522 > 100 µM | OVCAR-4 > 100 µM | OVCAR-8 > 100 µM | PC-3 > 100 µM | RPMI-8226 > 100 µM | SF-268 > 100 µM | SK-MEL-5 > 100 µM | SK-OV-3 > 100 µM | SNB-19 > 100 µM | SNB-75 > 100 µM | U-251 > 100 µM

NC1C/C(=N\O)c2c(Cl)sc(Cl)c21 (stereo unspecified)
inactive: 786-0 18.1 µM | COLO 205 25.4 µM | EKVX 18.5 µM | Hs-578T 59.3 µM | KM12 12 µM | LOX IMVI 3.11 µM | NCI-H23 17.1 µM | NCI-H460 20.4 µM | OVCAR-4 17.3 µM | OVCAR-8 15.2 µM | PC-3 20.8 µM | RPMI-8226 10.2 µM | SF-268 29.4 µM | SK-MEL-28 19.3 µM | SK-OV-3 > 100 µM | SNB-19 31.3 µM | SNB-75 25.2 µM

O=C1/C(=C/C=C/c2ccccc2)N=C(c2ccccc2)N1C1Nc2cc3c(cc2S1)NC(N1C(=O)/C(=C/C=C/c2ccccc2)N=C1c1ccccc1)S3 (stereo unspecified)
inactive: 786-0 45.9 µM | EKVX > 100 µM | Hs-578T 10.5 µM | KM12 21.7 µM | LOX IMVI 48.8 µM | NCI-H23 66.5 µM | NCI-H460 15.8 µM | NCI-H522 10.3 µM | OVCAR-4 73.8 µM | OVCAR-8 44.4 µM | PC-3 65.2 µM | RPMI-8226 13.2 µM | SF-268 9.68 µM | SK-MEL-28 38.2 µM | SK-MEL-5 55 µM | SK-OV-3 > 100 µM | U-251 42.4 µM

O=[N+]([O-])c1ccc(NN/N=N/c2ccc(-c3nc4ccccc4s3)cc2)c([N+](=O)[O-])c1
inactive: 786-0 20.8 µM | COLO 205 16.4 µM | EKVX 15 µM | Hs-578T 33.5 µM | KM12 27.5 µM | LOX IMVI 17.3 µM | NCI-H23 20.7 µM | NCI-H460 22.3 µM | NCI-H522 25 µM | OVCAR-4 24.6 µM | OVCAR-8 24.3 µM | PC-3 24.4 µM | SF-268 26.5 µM | SK-MEL-28 33.7 µM | SK-MEL-5 15.3 µM | SK-OV-3 28.7 µM | SNB-19 31.1 µM | SNB-75 24.8 µM | U-251 23.4 µM

CCCCCCCC(CC(=O)O)OC(=O)CC(CCCCCCC)OC1OC(C)C(O)C(O)C1OC1OC(C)C(O)C(O)C1O (stereo unspecified)
inactive: 786-0 > 100 µM | COLO 205 > 100 µM | EKVX > 100 µM | Hs-578T 67.6 µM | KM12 > 100 µM | LOX IMVI > 100 µM | NCI-H23 > 100 µM | NCI-H460 > 100 µM | NCI-H522 > 100 µM | OVCAR-8 > 100 µM | PC-3 > 100 µM | RPMI-8226 > 100 µM | SF-268 > 100 µM | SK-MEL-28 44.6 µM | SK-MEL-5 > 100 µM | SK-OV-3 > 100 µM | SNB-19 > 100 µM | SNB-75 > 100 µM | U-251 > 100 µM

COc1ccc(N2C(=O)/C(=C/c3ccc(N(CCC#N)CCC#N)cc3)N=C2c2ccccc2)cc1
inactive: 786-0 > 100 µM | COLO 205 > 100 µM | EKVX > 100 µM | Hs-578T > 100 µM | KM12 > 100 µM | LOX IMVI > 100 µM | NCI-H460 > 100 µM | OVCAR-4 > 100 µM | OVCAR-8 > 100 µM | PC-3 > 100 µM | RPMI-8226 > 100 µM | SF-268 > 100 µM | SK-MEL-28 > 100 µM | SK-MEL-5 > 100 µM | SK-OV-3 > 100 µM | SNB-19 > 100 µM | SNB-75 > 100 µM | U-251 > 100 µM

Nn1c(Nc2ccc(S(N)(=O)=O)cc2)nnc(/C=C/c2c(O)ccc3ccccc23)c1=O
inactive: 786-0 24.4 µM | COLO 205 27.1 µM | EKVX 13.3 µM | Hs-578T 31 µM | KM12 19.6 µM | LOX IMVI 12.9 µM | NCI-H23 4.07 µM | NCI-H460 26.7 µM | NCI-H522 13.5 µM | OVCAR-4 15.3 µM | OVCAR-8 3.08 µM | PC-3 47.2 µM | RPMI-8226 10.7 µM | SF-268 42.1 µM | SK-MEL-28 19.3 µM | SK-MEL-5 14.5 µM | SK-OV-3 24.2 µM | SNB-19 32.5 µM | U-251 39.9 µM

CN1C(=O)C23CCCC2CC1(c1ccccc1)S3 (stereo unspecified)
inactive: 786-0 > 100 µM | COLO 205 > 100 µM | EKVX > 100 µM | Hs-578T 78.9 µM | KM12 > 100 µM | LOX IMVI > 100 µM | NCI-H23 > 100 µM | NCI-H522 91.2 µM | OVCAR-4 56.1 µM | OVCAR-8 > 100 µM | PC-3 45.2 µM | RPMI-8226 > 100 µM | SF-268 > 100 µM | SK-MEL-28 > 100 µM | SK-MEL-5 > 100 µM | SK-OV-3 > 100 µM | SNB-19 > 100 µM | U-251 > 100 µM

CC(C)(C)OC(=O)NC(Cc1ccccc1)OCc1ccccc1 (stereo unspecified)
inactive: 786-0 17.2 µM | COLO 205 35 µM | EKVX 17.4 µM | Hs-578T 23.3 µM | KM12 19.5 µM | NCI-H23 16 µM | NCI-H460 21.3 µM | NCI-H522 11.4 µM | OVCAR-8 20.1 µM | PC-3 13.5 µM | RPMI-8226 26 µM | SF-268 18.4 µM | SK-MEL-28 17.9 µM | SK-MEL-5 15.5 µM | SK-OV-3 17.6 µM | SNB-19 19.5 µM | SNB-75 12.2 µM | U-251 > 10 µM

CN1N(c2ccccc2)C(=O)C2=NC=C(C(=O)c3ccccc3)C(=N)C21C (stereo unspecified)
inactive: 786-0 > 100 µM | COLO 205 > 100 µM | EKVX > 100 µM | Hs-578T > 100 µM | LOX IMVI > 100 µM | NCI-H23 > 100 µM | NCI-H460 > 100 µM | NCI-H522 > 100 µM | OVCAR-4 > 100 µM | PC-3 > 100 µM | RPMI-8226 > 100 µM | SF-268 > 100 µM | SK-MEL-28 > 100 µM | SK-MEL-5 > 100 µM | SK-OV-3 > 100 µM | SNB-19 > 100 µM | U-251 > 100 µM

COC(=O)C1(Cc2ccc3c(c2)CCC3)Cc2ccccc2C1
inactive: 786-0 37.8 µM | COLO 205 25 µM | EKVX 36.1 µM | Hs-578T 48.3 µM | KM12 37.2 µM | LOX IMVI 14.7 µM | NCI-H23 34.7 µM | NCI-H460 32.9 µM | NCI-H522 22.5 µM | OVCAR-4 16.8 µM | OVCAR-8 50.6 µM | PC-3 16.1 µM | RPMI-8226 17.9 µM | SF-268 41.9 µM | SK-MEL-28 74.5 µM | SK-OV-3 29.7 µM | SNB-19 48.5 µM | SNB-75 55.7 µM | U-251 42.3 µM

COc1cc(O)ccc1C(=S)SC
inactive: 786-0 > 100 µM | COLO 205 > 100 µM | EKVX 11.4 µM | Hs-578T 24.1 µM | KM12 69.7 µM | NCI-H23 40.6 µM | NCI-H460 77.6 µM | NCI-H522 46 µM | OVCAR-4 52 µM | OVCAR-8 58.7 µM | PC-3 47.2 µM | RPMI-8226 21.8 µM | SF-268 67.1 µM | SK-MEL-28 > 100 µM | SK-MEL-5 26.5 µM | SK-OV-3 > 100 µM | SNB-19 78.2 µM | SNB-75 > 100 µM | U-251 54.2 µM
